Patent US20070060605A1, “Compositions and methods for inhibiting platelet activation and thrombosis” (priority 2001, published 2007)
Where two headings read alike, the source gives them in different places.

Key:
[1] = test system: platelets; experiment: Agonist-induced platelet granule secretion / activation (P-selectin expression by flow cytometry; ADP/ATP release); assay type: cell-based, human; conditions: for IC50: Homo sapiens, Platelet
Protocol: In order to monitor ATP release, a cocktail of 100 μM SFLLR (synthesized using solid phase Fmoc chemistry on an Applied Biosystems model 430A peptide synthesizer) and 3 mg/ml of luciferin/luciferase (Sigma, St. Louis, Mo.) in a volume of 10 μl is added to 20 μl of PRP. Samples are immediately analyzed for luminescence. Activated platelets supply the ATP necessary for luminescence of the luciferin/luciferase assay. Assays can be performed at high throughput through use of a microtiter plate system, e.g., 384-well plates and a Multidrop 384 (Thermo Labsystems, Helsinki), read with a high density imaging system, e.g., the Tundra system (Imaging Research, St. Catherine's, Ontario).
In order to assay platelet activation by cell surface marker expression, fresh PRP is isolated from donors who have not ingested aspirin for two weeks prior to donation. PRP (40 μl) is incubated with known or suspected inhibitor in DMSO or DMSO alone for 15 min. The sample is then incubated with the indicated agonist (e.g., SFLLR) for 10 min. Following incubation of the sample with the indicated agonist, 10 μl of reaction mixture is transferred to 5 μl of phycoerythrin (PE)-conjugated AC 1.2 anti-P-selectin antibody (for assessment of P-selectin surface expression) or fluorescein isothiocyanate (FITC)-conjugated PAC-1 antibody (for assessment of GPIIbIIIa activation). PBS (500 μl) is added to the sample after a 20 min incubation and the platelets are analyzed immediately by flow cytometry. Flow cytometry can be performed using, for example, a Becton-Dickinson FACSCalibur flow cytometer or its equivalent. Fluorescent channels are set at logarithmic gain. Ten thousand particles are acquired for each sample. A 530/30 band pass filter is used for FL-1 fluorescence. A 585/42 band pass filter is used for FL-2 fluorescence. FITC is measured in the FL-1 channel and PE is measured in the FL-2 channel. Data are analyzed using, for example, CellQuest software on a Macintosh PowerPC, or their equivalents.
Compounds were tested for the ability to inhibit agonist-induced ADP/ATP release from platelet dense granules using a luciferin-luciferase reporter system. In this assay, compounds were incubated with platelet-rich plasma (PRP) for 30 min. A cocktail of the platelet agonist and luciferin-luciferase was then added to the wells. Plates were immediately analyzed using a Tundra high density luminescence imager. […] As a control, compounds were also screened in a platelet-free assay for the ability to inhibit luciferin-luciferase upon exposure to ATP.
Each of the compounds was tested for inhibition of platelet activation in response to the agonists SFLLR (a thrombin mimic), U46619 (a thromboxane A2 mimic), ADP and the phorbol ester PMA.
Compounds were also tested by flow cytometry for the inhibition of SFLLR-induced GPIIbIIIa activation and P-selectin expression. In these experiments, freshly obtained PRP was prepared from healthy volunteers who had not ingested aspirin for two weeks prior to donation. Forty μl of PRP was incubated with inhibitor in DMSO or DMSO alone for 15 min. The sample was then incubated with the indicated agonist for 10 min. Following incubation of the sample with the indicated agonist, 10 μl of reaction mixture was transferred to 5 μl of PE-conjugated AC1.2 anti-P-selectin antibody (for assessment of P-selectin surface expression) or FITC-conjugated PAC-1 antibody (for assessment of GPIIbIIIa activation). PBS (500 μl) was added to the sample after a 20 min incubation and the platelets were analyzed immediately by flow cytometry. Flow cytometry was performed using a Becton-Dickinson FACSCalibur flow cytometer. Fluorescent channels were set at logarithmic gain. Ten thousand particles were acquired for each sample. A 530/30 band pass filter was used for FL-1 fluorescence. A 585/42 band pass filter was used for FL-2 fluorescence. FITC was measured in the FL-1 channel and PE was measured in the FL-2 channel.

[2] = test system: platelet accumulation into thrombus; assay type: in vivo
Excerpt: A preferred animal model involves intravital microscopy of laser-induced thrombi. The method is described by Rosen et al., 2001, Am J Pathol 158, 1613-1622, which is incorporated herein by reference. Minor variations of that method were employed as described below.
Experimental mice are pre-anesthetized and surgically prepared. A tracheal tube is placed to facilitate breathing and the jugular vein is canulated to allow for maintenance of anesthetic and introduction of compound. The cremaster muscle is then exteriorized. The muscle is affixed over a glass slide, allowing illumination from below. A steady drip of a sodium-bicarbonate buffered salt solution is maintained throughout the experiment to keep the exposed muscle moist. Blood flow in the muscle is visualized using a 40× water immersion lens and epi-illuminated with an appropriately filtered light source. Alexa 488-labeled anti-mouse CD41 antibody is injected through the jugular canulus to label platelets in vivo.
Thrombosis is initiated by damaging the vessel wall (of a 30 μm vessel) with a laser pulse from a MicroPoint LASER attached to the microscope. A LASER pulse is delivered, causing damage in an area smaller than 1 μm. The recruitment of platelets to the thrombus is then monitored by the accumulation of (activated) Alexa 488-labeled platelets at the ablation site using fluorescence microscopy, and the process is recorded digitally. The method thus permits in vivo analysis of platelet activation as measured by platelet aggregation and thrombosis.
The degree of embolization in an untreated mouse can be quantified using software for image analysis, e.g., BioQuant True Color Windows (Biometrics, Nashville, Tenn.), as described in Rosen et al., 2001, supra. The software package permits the determination of the “integrated optical density” or IOD of the thrombus.
Using quantitative intravital fluorescence videomicroscopy with high temporal resolution (111 images/second), the effect of PDE3 inhibition on the platelet recruitment into thrombi was directly observed over time. Platelets were fluorescently labeled by infusing rat-anti-mouse CD41 and Alexa 488-anti-rat IgG through a cannulated jugular vein. The cremaster microvasculature was exposed and mapped and suitable arteriole segments were selected for laser-induced injury. A series of control injuries were generated prior to infusion of the inhibitory compound. The power and the number of laser pulses required to generate each thrombus was recorded. Platelet accumulation to the thrombi following laser ablation was recorded using digital videomicroscopy. The thrombus total fluorescence in each frame of the videos was analyzed using Slidebook software for digital videomicroscopy. The pyridazinone compound was then infused. Following a 15 minute incubation, a series of experimental injuries were generated 250 μm proximal, with relationship to blood flow, of the first injury and the resultant thrombi were recorded. The power and the number of pulses required to induce the control thrombus was used to induce the experimental thrombus. The control and experimental thrombi constituting a pair were compared for statistical analysis. The total fluorescence intensity of the thrombi before and after the infusion of pyridazinone compound was recorded.
Images from a representative experiment of the recruitment of fluorescently-labeled […] platelets into a growing thrombus over time is shown in FIG. 9A.

CC1CC(=O)NN=C1c1ccc(N)c([N+](=O)[O-])c1 (stereo not drawn) [6-(4-Amino-3-nitro-phenyl)-5-methyl-4,5-dihydro-2H-pyridazin-3-one]
ADP- and collagen-induced granule release less potent than SFLLR and U46619 [1]: at least 25 fold
ADP-induced responses inhibited less effectively than SFLLR and U46619 responses ([1]; ADP vs SFLLR and U46619): approximately 20 fold
IC50 ([1]; agonist ADP, read-out: IC50s of inhibition of platelet granule secretion induced with ADP): 8 µM
IC50 ([1]; agonists SFLLR and U-46619, read-out: IC50 SFLLR- and U-46619-induced activation): 0.3 µM
IC50 ([1]; agonist Collagen, read-out: IC50 collagen-induced platelet granule release): 70 µM
Inhibition of PMA-induced platelet activation ([1]; agonist PMA): did not inhibit
Inhibition of PMA-induced activation ([1]; agonist PMA, up to 1000 μM): No inhibition
Inhibition of maximal rate of platelet recruitment ([2]; 0.3 mg/kg): 37%
Median Stabilized/Maximum platelet accumulation ([2]; 0.3 mg/kg): 36%
Inhibition of maximum platelet accumulation ([2]; 0.6 mg/kg): 61%
Median Stabilized/Maximum platelet accumulation ([2]; 0.6 mg/kg): 41%
Stabilized platelet accumulation ([2]; 0.6 mg/kg (P<0.05) and 1.2 mg/kg (P<0.01)): dose-dependent inhibition
Maximum platelet accumulation compared to absence of compound ([2]; 0.6 mg/kg and 1.2 mg/kg (P<0.05)): statistically significant decrease
Inhibition of stabilized platelet accumulation ([2]; 0.6 mg/kg, 300 seconds after laser injury): 54%
Inhibition of maximal rate of platelet recruitment ([2]; 1.2 mg/kg): 56%
Inhibition of maximum platelet accumulation ([2]; 1.2 mg/kg): 56%
Median Stabilized/Maximum platelet accumulation ([2]; 1.2 mg/kg): 33%
Inhibition of stabilized platelet accumulation ([2]; 1.2 mg/kg, 300 seconds after laser injury): 72%
Median total thromboembolization, % of the maximum platelet accumulation of control thrombi ([2]; 1.2 mg/kg, p<0.04): 1.0%
Thromboembolization ([2]; after infusion of 1.2 mg/kg): significantly reduced
Reduction of embolization ([2]; after injection, laser-induced thrombus): greater than 80%
Inhibition of thrombus formation ([2]; laser-induced thrombosis, P<0.01): 72%
Thromboembolization ([2]; same mouse model, dose not stated): inhibited

CCCCCn1c2c(c(=N)c3ccccc31)CCC2 [JF081204{5C}]
U46619-, A23187-, and PMA-induced P-selectin expression less potent than SFLLR [1]: at least 150 fold
IC50 ([1]; agonist A23187, read-out: IC50 P-Selectin Expression Induced by A23187): > 300 µM
IC50 ([1]; agonist PMA, read-out: IC50 P-Selectin Expression Induced by PMA): 300 µM
IC50 ([1]; agonist SFLLRN, maximally stimulatory dose, read-out: IC50 P-Selectin Expression Induced by SFLLRN): 2 µM
IC50 ([1]; agonist SFLLRN/SFLLR, human platelets, read-out: IC50 SFLLRN-induced P-selectin expression, flow cytometry): 2 to 150 µM
IC50 ([1]; agonist U46619, read-out: IC50 P-Selectin Expression Induced by U46619): 400 µM
Potency in inhibiting SFLLRLN- and epinephrine-induced activation relative to other agonists ([1]; footnote, sentence cut off): #inhibit platelet activation induced by the indicated agonist is shown. The potency of this compound in inhibiting SFLLRLN- and epinephrine-induced activation was at least 100-fold greater than that o
Time for thrombus to achieve 50% maximum platelet accumulation / onset of platelet accumulation ([2]; 1 mg/kg (P<0.001), 3 mg/kg (P<0.05), 6 mg/kg (P<0.001)): statistically significant delay
Platelet accumulation over stages of thrombus formation ([2]; 1 mg/kg, 3 mg/kg, and 6 mg/kg): inhibited at all stages
Median of maximum platelet accumulation compared to absence of compound ([2]; 3 mg/kg (P<0.002) and 6 mg/kg (P<0.02)): statistically significant decrease
Median stabilized platelet accumulation ([2]; 3 mg/kg (P<0.01) and 6 mg/kg (P<0.001)): dose-dependent inhibition
Inhibition of maximum platelet accumulation ([2]; dose-dependent, 1-6 mg/kg): up to 80%
Inhibition of stabilized platelet accumulation ([2]; dose-dependent, 5 minutes following laser injury): up to 75%
